Data on two compounds can be found in PMC10783034, “Pharmacokinetic and pharmacodynamic evaluation of the atypical tetracyclines chelocardin and amidochelocardin in murine infection models” (Microbiology Spectrum, 2023).

In brackets after ≈: the same amount, converted by molar mass. Entries after “also recorded” stand apart in the source; their conditions may differ.

Series [1] is described as follows: Histopathological analysis of kidneys and bladder in the ascending urinary tract infection model (satellite groups). The format is in vivo, mice. To be noted: for histopathological findings in bladder / histopathological findings in kidneys: infected mice, CHD/CDCHD 12 mg/kg SC BID, gentamicin 100 mg/kg SC BID. Also on record: key to histopathological score Pelvis: 1 = mild; 2 = moderate; 3 = severe; histopathological score Papilla / histopathological score Bladder: scale not given here. Here is the method:
The model was conducted as described previously ([27], [60]). In brief, n = 21 animals were used per group in the main study, and n = 3 animals per group in satellite groups for histopathological analysis. Three days before the start of the study and during the study, mice had free access to 5% glucose as drinking water. Fresh overnight colonies of E. coli from a 5% horse blood agar plate were suspended in PBS pH 7.4 to approximately 10^9 cfu/mL. Approximately 1 hour before inoculation, mice were treated orally with […] Nurofen (20 mg ibuprofen/mL corresponding to approximately 30 mg/kg) as a pain relief. Urine was removed from the bladder by gently pressing the abdomen and mice were anaesthetized with 0.15 mL Zoletil mix SC. Thereafter, the mice were inoculated. A syringe with a catheter, containing the bacterial suspension was inserted via the urethra into the bladder and 50 µL of the inoculum was slowly injected into the bladder. Hereafter, the mouse was placed in the cage and kept in a warming cabinet until fully awake (approximately 4 hours). The mice were treated with CHD (12 mg/kg SC BID), CDCHD (12 mg/kg SC BID), gentamicin (100 mg/kg SC BID), or vehicle BID (2nd dose was administered approximately 6 hours after the 1st dose on each day) on day 1, that is, first dose around 24 hours post-infection, and day 2 post-inoculation. The mice were observed during the study and scored based on their behavior and clinical signs. Clinical scoring comprised assessment of piloerection in the skin, activity (movement, curiosity), and appearance of eyes. The scoring range comprised 0–4. In our model, a maximum score of 1; thus, only mild discomfort was observed. On day 3 post-inoculation and after sampling urine, mice were euthanized by cervical dislocation, and bladder and kidneys were removed from 21 mice in each treatment group aseptically for cfu determination. The bladder and kidneys were stored at −80°C and later homogenized in 0.5 or 1 mL saline, respectively. Colony counts of urine were determined immediately. From the three additional mice in each treatment group (satellite groups), urine and plasma were sampled and frozen at −80°C, and bladders, kidneys, and liver were collected in 4% buffered formalin. Cfu was determined in urine samples within 2–3 hours after sampling. Frozen organs were thawed and homogenized with steel beads using a tissue lyser. All samples, urine, kidney, and bladder, were 10-fold diluted in saline and 20 µL spots were applied on blue agar plates in duplicates. In addition, undiluted samples of urine (2–100 μL depending on the available amount of urine) were spread on a separate agar plate to determine the colony counts at the lowest possible detection level. All agar plates were incubated for 18–22 hours at 35°C in ambient air.
(§1) Approximately 3 µm thick sections of formalin-fixed, paraffin-embedded samples of liver and kidney were analyzed blinded, and randomized to the experimental groups by a trained veterinarian. […] Kidneys were analyzed for changes in the glomeruli (not found), tubular dilation (1 = mild or up to 20% of tubuli affected, 2 = moderate or 25-40% of tubuli affected, 3 = severe 50% or more), and inflammatory infiltrate in the pelvis (1 = mild, 2 = moderate, 3 = severe).

Series [2] can be described thus: Histopathological analysis of kidneys and livers after high-dose IV administration. To be noted: 30 mg/kg IV; for histopathological examination of liver / kidney tissue discoloration: 24 hours after treatment; for overall acute toxicity assessment: high-dose groups. It counts as in vivo, mice. Here is the method: The sustained high urine concentrations observed for CDCHD at 15 mg/kg IV raised the concern that accumulation might occur. We therefore performed histopathological analysis of livers and kidneys. A dose of 30 mg/kg of CHD and CDCHD was administered intravenously, and livers and kidneys were examined 24 hours after treatment to investigate signs of acute toxicity.
CHD and CDCHD were administered in single PK studies at the doses of 15 mg/kg and 30 mg/kg IV, at 15 mg/kg SC, and 15 mg/kg PO. Up to 25 µL of blood was collected from the lateral tail vein (n = 3 per time point) and time points t = 0.5, 1, 2, 4, and 8 hours. For 15 mg/kg IV- and PO-administered compounds, blood was also collected at time points t = 24 and 48 hours. For IV- and SC-administered compounds, blood was also collected at t = 0.25 hours. At t = 24 hours (15 mg/kg SC, 30 mg/kg IV) or 72 hours (15 mg/kg IV and PO), animals were euthanized to collect blood. At every blood collection, time point spontaneous urine was collected as well. Whole blood was collected into Eppendorf tubes coated with 0.5 M EDTA and immediately spun down at 15,870× g for 10 min at 4°C. Then, plasma was transferred into a new Eppendorf tube and stored at −80°C until analysis.
as §1

For the next series, the system named is K. pneumoniae ATCC 43816. Also on record: method as in PMID 32962088. The note with it: cited from earlier work.
The next series deals with E. coli ATCC 25922. Details: method as in PMID 32962088. To be noted: cited from earlier work.
A further series relates to K. pneumoniae strains. Details: method as in PMID 32962088. To be noted: selection of different K. pneumoniae strains; cited from earlier work.

Regarding `Cc1ccc2c(C)c3c(c(O)c2c1O)C(=O)C1(O)C(=O)C(C(N)=O)=C(O)C(N)C1C3` (stereo not drawn) [CDCHD, 2-carboxamido-2-deacetyl-chelocardin], in series [1] (animal No. 1), the “histopathological score Bladder” value worked out at 0, the “histopathological score Glomeruli” value was 0, the “histopathological score Papilla” value is on record as 0 and the “histopathological score Pelvis” value is reported as 0. In series [1] (animal No. 1), the “histopathological score Tubuli” value is given as 2 (2 = moderate or 25-40% of tubuli affected). Besides, in series [1] (animal No. 2), the “histopathological score Bladder” value turned out to be 0, the “histopathological score Glomeruli” value is recorded as 0, the “histopathological score Papilla” value is reported as 0 and the “histopathological score Pelvis” value was 1. Besides, in series [1] (animal No. 2), the “histopathological score Tubuli” value was 2 (2 = moderate or 25-40% of tubuli affected). In series [1] (animal No. 3), the “histopathological score Bladder” value turned out to be 0, the “histopathological score Glomeruli” value came out at 0, the “histopathological score Papilla” value is given as 1 and the “histopathological score Pelvis” value was determined as 0. Moreover, in series [1] (animal No. 3), the “histopathological score Tubuli” value is recorded as 1 (1 = mild or up to 20% of tubuli affected). Moreover, in series [1], the “histopathological findings in bladder” value is given as “did not show any significant alterations”; the “histopathological findings in kidneys” value was “a moderate tubulus dilation (resulting in moderate or 20%–40% of tubuli affected) and protein casts”. In addition, in series [2], the “histopathological examination of liver” value was “sporadic extramedullary erythropoiesis and thrombopoiesis; also recorded: a moderate reduction of glycogen, moderate anisokaryosis, and a moderate amount of double-nucleated cells”; the kidney tissue discoloration entry is recorded as “yellow tissue discoloration”; the “overall acute toxicity assessment” value was “no immediate toxicity red flags”. Also, the “minimal bactericidal concentration (MBC)” value in the series on K. pneumoniae ATCC 43816 was 8 µg/mL (≈ 19.4 µM). For the same compound, in the series on E. coli ATCC 25922, the MIC is on record as 2 µg/mL (≈ 4.85 µM). For the same compound, in the series on K. pneumoniae strains, the MIC is listed as ~ 4 µg/mL.

As to `CC(=O)C1=C(O)[C@H](N)[C@@H]2Cc3c(c(O)c4c(O)c(C)ccc4c3C)C(=O)[C@]2(O)C1=O` [CHD, chelocardin], in series [1] (animal No. 1), the “histopathological score Glomeruli” value was 0, the “histopathological score Papilla” value worked out at 2, the “histopathological score Pelvis” value was 0 and the “histopathological score Tubuli” value is given as 3 (3 = severe 50% or more). In addition, in series [1] (animal No. 2), the “histopathological score Bladder” value is recorded as “- 1 1”, the “histopathological score Glomeruli” value is reported as 0, the “histopathological score Papilla” value is listed as 2 and the “histopathological score Pelvis” value is 1. Also, the “histopathological score Tubuli” value in series [1] (animal No. 2) is listed as 3 (3 = severe 50% or more). In series [1] (animal No. 3), the “histopathological score Bladder” value is given as “- 1 1”, the “histopathological score Glomeruli” value is 0, the “histopathological score Papilla” value is 0 and the “histopathological score Pelvis” value turned out to be 2. The “histopathological score Tubuli” value in series [1] (animal No. 3) is listed as 1 (1 = mild or up to 20% of tubuli affected). In addition, in series [1], the “histopathological findings in bladder” value was “mild, focal, submucosal inflammatory aggregates”; the “histopathological findings in kidneys” value is “moderate tubulus degeneration with vacuolated cytoplasm, accumulation of hyaline droplets, protein casts, and a mild to moderate accumulation of inflammatory cells”. In series [2], the “histopathological examination of liver” value was “sporadic extramedullary erythropoiesis and thrombopoiesis”; the kidney tissue discoloration result is “yellow tissue discoloration”; the “overall acute toxicity assessment” value is recorded as “no immediate toxicity red flags”. Also, the “minimal bactericidal concentration (MBC)” value in the series with K. pneumoniae ATCC 43816 is on record as 16 µg/mL (≈ 38.9 µM). In the series on E. coli ATCC 25922, the MIC is given as 2 µg/mL (≈ 4.86 µM). Moreover, in the series with K. pneumoniae strains, the MIC is ~ 4 µg/mL.
